Measurements from the supplement of paper PMC10307832.

Columns and labels:
Assay in all cases: relative viability (nuclei count vs DMSO), 5 days (fraction); higher = more cells survive
[1] = compound: C1=CC(=CC=C1NC(=S)NNC2=C(C=C(C=C2[N+](=O)[O-])C(F)(F)F)[N+](=O)[O-])F [Kobe2602] + CCNC(=O)c1noc(-c2cc(C(C)C)c(O)cc2O)c1-c1ccc(CN2CCOCC2)cc1 [Luminespib] (partner 0.01 µM)
Method in brief: (§1)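 Relative viability divides the nuclei count in treated wells by that in vehicle wells. Lung cancer cell lines were seeded in 1536-well plates, dosed by pin tool the next day, and fixed and stained after 5 days in one step with final 0.05% Triton X-100, 1% formaldehyde and 1 ug/ml Hoechst. Dosing was a single drug or a fixed anchor-drug dose plus five library-drug doses (not always all listed) in √10 steps, and values are medians of duplicate plates imaged at 4×.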

[2] = compound: C1=CC(=CC=C1NC(=S)NNC2=C(C=C(C=C2[N+](=O)[O-])C(F)(F)F)[N+](=O)[O-])F [Kobe2602] + CS(=O)(=O)CCNCc1ccc(-c2ccc3ncnc(Nc4ccc(OCc5cccc(F)c5)c(Cl)c4)c3c2)o1 [Lapatinib] (partner 2 µM)
Method in brief: as §1

[3] = compound: C1=CC(=CC=C1NC(=S)NNC2=C(C=C(C=C2[N+](=O)[O-])C(F)(F)F)[N+](=O)[O-])F [Kobe2602] + NC(=O)Nc1cc(-c2cccc(F)c2)sc1C(=O)N[C@H]1CCCNC1 [AZD7762] (partner 0.2 µM)
Method in brief: as §1

[4] = compound: O[C@@H](COc1cccc2ncccc12)CN1CCN([C@@H]2c3ccccc3[C@@H]3[C@H](c4ccccc42)C3(F)F)CC1 [Zosuquidar] + CS(=O)(=O)N1CCN(Cc2cc3nc(-c4cccc5[nH]ncc45)nc(N4CCOCC4)c3s2)CC1 [Pictilisib] (partner 1 µM)
Method in brief: as §1

Cell Line: NCI-H1651
- relative viability ([1]; first compound 0.2 µM): 0.673
- relative viability ([1]; first compound 0.6325 µM): 0.911
- relative viability ([1]; first compound 2 µM): 0.642
- relative viability ([1]; first compound 6.325 µM): 0.758
- relative viability ([1]; first compound 20 µM): 0.93
- relative viability ([2]; first compound 0.2 µM): 0.871
- relative viability ([2]; first compound 0.6325 µM): 0.981
- relative viability ([2]; first compound 2 µM): 0.836
- relative viability ([2]; first compound 6.325 µM): 0.775
- relative viability ([2]; first compound 20 µM): 0.764
- relative viability ([3]; first compound 0.2 µM): 0.442
- relative viability ([3]; first compound 0.6325 µM): 0.447
- relative viability ([3]; first compound 2 µM): 0.462
- relative viability ([3]; first compound 6.325 µM): 0.41
- relative viability ([3]; first compound 20 µM): 0.429
- relative viability ([4]; first compound 0.01 µM): 0.589
- relative viability ([4]; first compound 0.03162 µM): 0.661
- relative viability ([4]; first compound 0.1 µM): 0.559
- relative viability ([4]; first compound 0.3162 µM): 0.668
- relative viability ([4]; first compound 1 µM): 0.615

Cell Line: NCI-H1734
- relative viability ([1]; first compound 0.2 µM): 0.196
- relative viability ([1]; first compound 0.6325 µM): 0.175
- relative viability ([1]; first compound 2 µM): 0.167
- relative viability ([1]; first compound 6.325 µM): 0.187
- relative viability ([1]; first compound 20 µM): 0.173
- relative viability ([2]; first compound 0.2 µM): 1.06
- relative viability ([2]; first compound 0.6325 µM): 1.11
- relative viability ([2]; first compound 2 µM): 1.14
- relative viability ([2]; first compound 6.325 µM): 1.26
- relative viability ([2]; first compound 20 µM): 1.03
- relative viability ([3]; first compound 0.2 µM): 0.554
- relative viability ([3]; first compound 0.6325 µM): 0.656
- relative viability ([3]; first compound 2 µM): 0.586
- relative viability ([3]; first compound 6.325 µM): 0.549
- relative viability ([3]; first compound 20 µM): 0.503
- relative viability ([4]; first compound 0.01 µM): 0.388
- relative viability ([4]; first compound 0.03162 µM): 0.484
- relative viability ([4]; first compound 0.1 µM): 0.399
- relative viability ([4]; first compound 0.3162 µM): 0.471
- relative viability ([4]; first compound 1 µM): 0.478

Cell Line: PC-14
- relative viability ([1]; first compound 0.2 µM): 0.16
- relative viability ([1]; first compound 0.6325 µM): 0.161
- relative viability ([1]; first compound 2 µM): 0.307
- relative viability ([1]; first compound 6.325 µM): 0.151
- relative viability ([1]; first compound 20 µM): 0.149
- relative viability ([2]; first compound 0.2 µM): 0.31
- relative viability ([2]; first compound 0.6325 µM): 0.426
- relative viability ([2]; first compound 2 µM): 0.294
- relative viability ([2]; first compound 6.325 µM): 0.333
- relative viability ([2]; first compound 20 µM): 0.306
- relative viability ([3]; first compound 0.2 µM): 0.39
- relative viability ([3]; first compound 0.6325 µM): 0.445
- relative viability ([3]; first compound 2 µM): 0.348
- relative viability ([3]; first compound 6.325 µM): 0.351
- relative viability ([3]; first compound 20 µM): 0.308
- relative viability ([4]; first compound 0.01 µM): 0.573
- relative viability ([4]; first compound 0.03162 µM): 0.831
- relative viability ([4]; first compound 0.1 µM): 0.801
- relative viability ([4]; first compound 0.3162 µM): 0.696
- relative viability ([4]; first compound 1 µM): 0.816

Cell Line: NCI-H2347
- relative viability ([1]; first compound 0.2 µM): 0.454
- relative viability ([1]; first compound 0.6325 µM): 0.369
- relative viability ([1]; first compound 2 µM): 0.793
- relative viability ([1]; first compound 20 µM): 0.756
- relative viability ([2]; first compound 0.2 µM): 0.939
- relative viability ([2]; first compound 0.6325 µM): 0.963
- relative viability ([2]; first compound 2 µM): 0.913
- relative viability ([2]; first compound 6.325 µM): 0.988
- relative viability ([2]; first compound 20 µM): 0.909
- relative viability ([3]; first compound 0.2 µM): 0.85
- relative viability ([3]; first compound 0.6325 µM): 0.77
- relative viability ([3]; first compound 2 µM): 0.798
- relative viability ([3]; first compound 6.325 µM): 0.713
- relative viability ([3]; first compound 20 µM): 0.806
- relative viability ([4]; first compound 0.01 µM): 0.627
- relative viability ([4]; first compound 0.03162 µM): 0.495
- relative viability ([4]; first compound 0.1 µM): 0.467
- relative viability ([4]; first compound 0.3162 µM): 0.735
- relative viability ([4]; first compound 1 µM): 0.647

Cell Line: NCI-H1793
- relative viability ([1]; first compound 0.2 µM): 0.185
- relative viability ([1]; first compound 0.6325 µM): 0.201
- relative viability ([1]; first compound 2 µM): 0.217
- relative viability ([1]; first compound 6.325 µM): 0.47
- relative viability ([1]; first compound 20 µM): 0.205
- relative viability ([2]; first compound 0.2 µM): 1.03
- relative viability ([2]; first compound 0.6325 µM): 0.663
- relative viability ([2]; first compound 2 µM): 0.621
- relative viability ([2]; first compound 6.325 µM): 0.623
- relative viability ([2]; first compound 20 µM): 0.78
- relative viability ([3]; first compound 0.2 µM): 0.654
- relative viability ([3]; first compound 0.6325 µM): 0.352
- relative viability ([3]; first compound 2 µM): 0.641
- relative viability ([3]; first compound 6.325 µM): 0.287
- relative viability ([3]; first compound 20 µM): 0.539
- relative viability ([4]; first compound 0.01 µM): 0.483
- relative viability ([4]; first compound 0.03162 µM): 0.383
- relative viability ([4]; first compound 0.3162 µM): 0.357
- relative viability ([4]; first compound 1 µM): 0.297

Cell Line: NCI-H650
- relative viability ([1]; first compound 0.2 µM): 0.754
- relative viability ([1]; first compound 0.6325 µM): 0.897
- relative viability ([1]; first compound 2 µM): 0.796
- relative viability ([1]; first compound 6.325 µM): 0.748
- relative viability ([1]; first compound 20 µM): 0.717
- relative viability ([2]; first compound 0.2 µM): 0.852
- relative viability ([2]; first compound 0.6325 µM): 1.07
- relative viability ([2]; first compound 2 µM): 1.19
- relative viability ([2]; first compound 6.325 µM): 1.04
- relative viability ([2]; first compound 20 µM): 0.99
- relative viability ([3]; first compound 0.2 µM): 0.843
- relative viability ([3]; first compound 0.6325 µM): 1.14
- relative viability ([3]; first compound 2 µM): 0.924
- relative viability ([3]; first compound 6.325 µM): 0.971
- relative viability ([3]; first compound 20 µM): 1.06
- relative viability ([4]; first compound 0.01 µM): 0.787
- relative viability ([4]; first compound 0.03162 µM): 0.789
- relative viability ([4]; first compound 0.3162 µM): 1.05
- relative viability ([4]; first compound 1 µM): 0.942

Cell Line: NCI-H596
- relative viability ([1]; first compound 0.2 µM): 1.03
- relative viability ([1]; first compound 0.6325 µM): 0.922
- relative viability ([1]; first compound 2 µM): 1.03
- relative viability ([1]; first compound 6.325 µM): 0.844
- relative viability ([1]; first compound 20 µM): 0.873
- relative viability ([2]; first compound 0.2 µM): 1.18
- relative viability ([2]; first compound 0.6325 µM): 1.19
- relative viability ([2]; first compound 2 µM): 1.05
- relative viability ([2]; first compound 6.325 µM): 0.934
- relative viability ([2]; first compound 20 µM): 1.17
- relative viability ([3]; first compound 0.2 µM): 1.13
- relative viability ([3]; first compound 0.6325 µM): 0.978
- relative viability ([3]; first compound 2 µM): 1.03
- relative viability ([3]; first compound 6.325 µM): 0.87
- relative viability ([3]; first compound 20 µM): 1.02
- relative viability ([4]; first compound 0.01 µM): 0.439
- relative viability ([4]; first compound 0.03162 µM): 0.432
- relative viability ([4]; first compound 0.1 µM): 0.36
- relative viability ([4]; first compound 0.3162 µM): 0.401
- relative viability ([4]; first compound 1 µM): 0.414
